Results published in patent US12157746B2, “Tetrahydro-1H-pyrazino[2,1-a]isoindolylquinoline compounds for the treatment of autoimmune disease” (F. HOFFMANN-LA ROCHE AG, priority 2018, dated 2024).

Molecular target: T1, human TLR9 (Homo sapiens, UniProt Q9NR96)
T1 sequence (Q9NR96 26-1032): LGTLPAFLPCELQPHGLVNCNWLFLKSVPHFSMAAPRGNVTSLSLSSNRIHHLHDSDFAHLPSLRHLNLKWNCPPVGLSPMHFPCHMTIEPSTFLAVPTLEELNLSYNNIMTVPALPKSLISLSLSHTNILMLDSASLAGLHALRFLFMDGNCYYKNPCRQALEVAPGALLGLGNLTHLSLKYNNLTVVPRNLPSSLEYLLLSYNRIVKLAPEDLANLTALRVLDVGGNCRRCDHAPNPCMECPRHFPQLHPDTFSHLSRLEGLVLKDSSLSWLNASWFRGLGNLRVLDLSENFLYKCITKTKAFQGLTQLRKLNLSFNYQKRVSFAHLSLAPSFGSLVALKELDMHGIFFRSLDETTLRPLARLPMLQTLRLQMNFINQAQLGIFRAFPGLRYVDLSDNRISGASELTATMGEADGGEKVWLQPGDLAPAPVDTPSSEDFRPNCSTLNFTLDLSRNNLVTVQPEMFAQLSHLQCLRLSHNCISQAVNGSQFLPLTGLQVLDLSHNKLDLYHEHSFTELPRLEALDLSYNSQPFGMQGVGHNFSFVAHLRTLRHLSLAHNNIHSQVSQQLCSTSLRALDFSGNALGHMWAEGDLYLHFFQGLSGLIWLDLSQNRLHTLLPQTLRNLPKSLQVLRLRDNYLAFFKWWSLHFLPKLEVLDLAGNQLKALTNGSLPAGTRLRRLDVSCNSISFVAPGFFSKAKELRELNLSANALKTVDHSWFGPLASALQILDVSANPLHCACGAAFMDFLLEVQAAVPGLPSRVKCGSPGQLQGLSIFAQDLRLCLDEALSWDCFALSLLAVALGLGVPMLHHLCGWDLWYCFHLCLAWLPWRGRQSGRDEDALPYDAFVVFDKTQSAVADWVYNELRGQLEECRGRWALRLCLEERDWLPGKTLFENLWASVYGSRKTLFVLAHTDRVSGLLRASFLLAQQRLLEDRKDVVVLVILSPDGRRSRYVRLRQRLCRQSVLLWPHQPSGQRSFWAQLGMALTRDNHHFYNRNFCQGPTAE
Assay: HEK293-Blue-hTLR-9 cells assay
Type: cell-based
Conditions: HEK293-Blue-hTLR9 cells, ODN2006 stimulation, 20 hrs, SEAP reporter; read-out: HEK/hTLR9 IC50
Description: HEK293-Blue-hTLR-9 Cells Assay:
A stable HEK293-Blue-hTLR-9 cell line was purchased from InvivoGen (Cat. #: hkb-htlr9, San Diego. California USA). These cells were originally designed for studying the stimulation of human TLR9 by monitoring the activation of NF-κB. A SEAP (secreted embryonic alkaline phosphatase) reporter gene was placed under the control of the IFN-β minimal promoter fused to five NF-κB and AP-1-binding sites. The SEAP was induced by activating NF-κB and AP-1 via stimulating HEK-Blue hTLR9 cells with TLR9 ligands. Therefore the reporter expression was declined by TLR9 antagonist under the stimulation of a ligand, such as ODN2006 (Cat. #: tlrl-2006-1, Invivogen, San Diego, California USA), for incubation of 20 hrs. The cell culture supernatant SEAP reporter activity was determined using QUANTI-Blue™ kit (Cat. #: rep-qb1, Invivogen, San Diego, California, USA) at a wavelength of 640 nm, a detection medium that turns purple or blue in the presence of alkaline phosphatase.
HEK293-Blue-hTLR9 cells were incubated at a density of 250.000-450,000 cells/mL in a volume of 170 μL in a 96-well plate in Dulbecco's Modified Eagle's medium (DMEM) containing 4.5 g/L glucose, 50 U/mL penicillin, […], […], 2 mM L-glutamine, 10% (v/v) heat-inactivated fetal bovine serum with addition of 20 μL test compound 1n a serial dilution in the presence of final DMSO at 1% and 10 μL of 20 uM ODN2006 in above DMEM, perform incubation under 37° C. in a CO2 incubator for 20 hrs. Then 20 μL of the supernatant from each well was incubated with 180 μL Quanti-blue substrate solution at 37° C. for 2 h and the absorbance was read at 620˜655 nm using a spectrophotometer. The signaling pathway that TLR9 activation leads to downstream NF-κB activation has been widely accepted, and therefore similar reporter assay was modified for evaluating TLR9 antagonist.

IC50	SMILES
78.5 nM	C[C@@H]1CN(c2ccc(C#N)c3ncccc23)C[C@@H]2c3ccc(N4C[C@@H](N)[C@](C)(O)C4)cc3CN12 [Example 45, 5-[(4R,10bS)-4-methyl-8-[trans-(3R,4R)-4-amino-3-hydroxy-3-methyl-pyrrolidin-1-yl]-3,4,6,10b-tetrahydro-1H-pyrazino[2,1-a]isoindol-2-yl]quinoline-8-carbonitrile]
100 nM	C[C@@H]1CN(c2ccc(C#N)c3ncccc23)C[C@@H]2c3ccc(N4CC5(CNC5)C4)cc3CN12 [Example 36, 5-[(4R,10bS)-8-(2,6-diazaspiro[3.3]heptan-2-yl)-4-methyl-3,4,6,10b-tetrahydro-1H-pyrazino[2,1-a]isoindol-2-yl]quinoline-8-carbonitrile]
56 nM	C[C@@H]1CN(c2ccc(C#N)c3ncccc23)C[C@@H]2c3ccc(N4CCNC[C@H](O)C4)cc3CN12 [Example 53A, 5-[(4R,10bS)-8-[(6S)-6-hydroxy-1,4-diazepan-1-yl]-4-methyl-3,4,6,10b-tetrahydro-1H-pyrazino[2,1-a]isoindol-2-yl]quinoline-8-carbonitrile]
97.5 nM	COC1CN(c2ccc3c(c2)CN2C3CN(c3ccc(C#N)c4ncccc34)C[C@H]2C)CC1N (single isomer, unassigned) [Example 16B]
197 nM	C[C@@H]1CN(c2ccc(C#N)n3nccc23)C[C@@H]2c3ccc(N[C@H]4CNC[C@H]4F)cc3CN12 [Example 98, 4-[(4R,10bS)-8-[[(3S,4R)-4-fluoropyrrolidin-3-yl]amino]-4-methyl-3,4,6,10b-tetrahydro-1H-pyrazino[2,1-a]isoindol-2-yl]pyrazolo[1,5-a]pyridine-7-carbonitrile]
90.5 nM	C[C@@H]1CN(c2ccc(C#N)c3ncccc23)C[C@@H]2c3ccc(N4CCOC5(CNC5)C4)cc3CN12 [Example 24, 5-[(4R,10bS)-4-methyl-8-(5-oxa-2,8-diazaspiro[3.5]nonan-8-yl)-3,4,6,10b-tetrahydro-1H-pyrazino[2,1-a]isoindol-2-yl]quinoline-8-carbonitrile]
99.2 nM	C[C@@H]1CN(c2ccc(C#N)c3nccnc23)C[C@@H]2c3ccc(N4CCNCC4)cc3CN12 [Example 7, 8-[(4R,10bS)-4-methyl-8-piperazin-1-yl-3,4,6,10b-tetrahydro-1H-pyrazino[2,1-a]isoindol-2-yl]quinoxaline-5-carbonitrile]
144 nM	C[C@@H]1CN(c2ccc(C#N)c3ncccc23)C[C@@H]2c3ccc(N4C[C@@H](F)[C@@H](N)C4)cc3CN12 [Example 46, 5-[(4R,10bS)-8-[(3S,4R)-3-amino-4-fluoro-pyrrolidin-1-yl]-4-methyl-3,4,6,10b-tetrahydro-1H-pyrazino[2,1-a]isoindol-2-yl]quinoline-8-carbonitrile]
74.1 nM	C[C@@H]1CN(c2ccc(C#N)c3ncccc23)C[C@@H]2c3ccc(N4C[C@H](N)[C@@](C)(O)C4)cc3CN12 [Example 45B, 5-[(4R,10bS)-8-[(3S,4S)-4-amino-3-hydroxy-3-methyl-pyrrolidin-1-yl]-4-methyl-3,4,6,10b-tetrahydro-1H-pyrazino[2,1-a]isoindol-2-yl]quinoline-8-carbonitrile]
71.2 nM	C[C@@H]1CN(c2ccc(C#N)c3ncccc23)C[C@@H]2c3ccc(N4CCN[C@H](CO)C4)cc3CN12 [Example 12, 5-[(4R,10bS)-8-[(3S)-3-(hydroxymethyl)piperazin-1-yl]-4-methyl-3,4,6,10b-tetrahydro-1H-pyrazino[2,1-a]isoindol-2-yl]quinoline-8-carbonitrile]
111 nM	C[C@@H]1CN(c2ccc(C#N)c3ncccc23)C[C@@H]2c3ccc(N4CC5(CNCCO5)C4)cc3CN12 [Example 35, 5-[(4R,10bS)-4-methyl-8-(5-oxa-2,8-diazaspiro[3.5]nonan-2-yl)-3,4,6,10b-tetrahydro-1H-pyrazino[2,1-a]isoindol-2-yl]quinoline-8-carbonitrile]
63.6 nM	C[C@@H]1CN(c2ccc(C#N)c3ncccc23)C[C@@H]2c3ccc(N4CCOCC(N)C4)cc3CN12 (stereo partly drawn) [Example 54, 5-[(4R,10bS)-8-(6-amino-1,4-oxazepan-4-yl)-4-methyl-3,4,6,10b-tetrahydro-1H-pyrazino[2,1-a]isoindol-2-yl]quinoline-8-carbonitrile]
103 nM	C[C@@H]1CN(c2ccc(C#N)c3ncccc23)C[C@@H]2c3ccc(NC4CNCCOC4)cc3CN12 (stereo partly drawn) [Example 56, 5-[(4R,10bS)-4-methyl-8-(1,4-oxazepan-6-ylamino)-3,4,6,10b-tetrahydro-1H-pyrazino[2,1-a]isoindol-2-yl]quinoline-8-carbonitrile]
165 nM	C[C@@H]1CN(c2ccc(C#N)n3nccc23)C[C@@H]2c3ccc(N4CCOC[C@H](N)C4)cc3CN12 [Example 101, 4-[(4R,10bS)-8-[(6R)-6-amino-1,4-oxazepan-4-yl]-4-methyl-3,4,6,10b-tetrahydro-1H-pyrazino[2,1-a]isoindol-2-yl]pyrazolo[1,5-a]pyridine-7-carbonitrile]
193 nM	C[C@@H]1CN(c2ccc(C#N)n3nccc23)C[C@@H]2c3ccc(N4CC[C@@H](N)C4)cc3CN12 [Example 96, 4-[(4R,10bS)-8-[(3R)-3-aminopyrrolidin-1-yl]-4-methyl-3,4,6,10b-tetrahydro-1H-pyrazino[2,1-a]isoindol-2-yl]pyrazolo[1,5-a]pyridine-7-carbonitrile]
227 nM	C[C@@H]1CN(c2ccc(C#N)n3ncc(F)c23)C[C@@H]2c3ccc(N4C[C@H](N)[C@@](C)(O)C4)cc3CN12 [Example 112, 4-[(4R,10bS)-8-[(3S,4S)-4-amino-3-hydroxy-3-methyl-pyrrolidin-1-yl]-4-methyl-3,4,6,10b-tetrahydro-1H-pyrazino[2,1-a]isoindol-2-yl]-3-fluoro-pyrazolo[1,5-a]pyridine-7-carbonitrile]
92 nM	C[C@@H]1CN(c2ccc(C#N)c3ncccc23)C[C@@H]2c3ccc(N4CCNC[C@H]4CO)cc3CN12 [Example 11, 5-[(4R,10S)-8-[(2S)-2-(hydroxymethyl)piperazin-1-yl]-4-methyl-3,4,6,10b-tetrahydro-1H-pyrazino[2,1-a]isoindol-2-yl]quinoline-8-carbonitrile]
81 nM	CO[C@@H]1CN(c2ccc3c(c2)CN2C3CN(c3ccc(C#N)c4ncccc34)C[C@H]2C)C[C@@H]1N (relative stereo) [Example 17, 5-[(4R,10bS)-8-[cis-3-amino-4-methoxy-pyrrolidin-1-yl]-4-methyl-3,4,6,10b-tetrahydro-1H-pyrazino[2,1-a]isoindol-2-yl]quinoline-8-carbonitrile]
135 nM	CO[C@H]1CCN(c2ccc3c(c2)CN2[C@H](C)CN(c4ccc(C#N)n5nccc45)C[C@H]32)C[C@H]1N [Example 106, 4-[(4R,10bS)-8-[(3R,4S)-3-amino-4-methoxy-1-piperidyl]-4-methyl-3,4,6,10b-tetrahydro-1H-pyrazino[2,1-a]isoindol-2-yl]pyrazolo[1,5-a]pyridine-7-carbonitrile]
215 nM	CO[C@H]1CN(c2ccc3c(c2)CN2[C@H](C)CN(c4ccc(C#N)n5nccc45)C[C@H]32)C[C@@H]1N [Example 95, 4-[(4R,10bS)-8-[(3S,4S)-3-amino-4-methoxy-pyrrolidin-1-yl]-4-methyl-3,4,6,10b-tetrahydro-1H-pyrazino[2,1-a]isoindol-2-yl]pyrazolo[1,5-a]pyridine-7-carbonitrile]
